Results taken from patent US8497083B2, “Fructosyl amino acid oxidase” (priority 2009, dated 2013).

Assays:
[1] = target: T1, fructosyl amino acid oxidase from Pichia sp. N1-1 (N1-1 FAOD, SEQ ID NO: 2) variant N47A (Pichia sp. N1-1, UniProt Q3L8U0, N47A); experiment: Dehydrogenase activity kinetics (mPMS/DCIP), N1-1 FAOD N47A mutant; format: biochemical; conditions: mPMS/DCIP over 4AA/TODB/POD
T1 construct: crude and purified
T1 sequence (Q3L8U0 1-427 N47A): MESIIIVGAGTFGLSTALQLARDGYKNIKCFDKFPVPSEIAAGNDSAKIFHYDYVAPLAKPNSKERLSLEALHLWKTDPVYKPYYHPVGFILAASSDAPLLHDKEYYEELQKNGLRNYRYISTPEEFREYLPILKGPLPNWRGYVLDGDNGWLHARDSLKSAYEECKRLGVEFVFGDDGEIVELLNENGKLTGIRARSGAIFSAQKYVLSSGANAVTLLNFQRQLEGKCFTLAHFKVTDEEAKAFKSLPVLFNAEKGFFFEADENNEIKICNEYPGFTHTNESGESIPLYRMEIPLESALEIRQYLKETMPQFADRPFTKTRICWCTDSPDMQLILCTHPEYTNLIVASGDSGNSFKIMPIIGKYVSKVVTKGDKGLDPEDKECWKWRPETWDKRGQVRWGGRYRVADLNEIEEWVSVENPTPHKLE
Excerpt: (§1) As used herein, “dehydrogenase activity” is an enzymatic activity (Vmax) of the fructosyl amino acid oxidase to catalyze oxidation of fructosyl amino acid to generate 2-keto-D-glucose and the corresponding amino acid while utilizing an electron mediator other than oxygen as an electron acceptor. The dehydrogenase activity may be assayed by measuring the amount of electrons transferred to the mediator using, for example, one of mPMS/DCIP (1-methoxy-5-methylphenazinium methylsulfate/2,6-dichloroindophenol), cPES (trifluoro-acetate-1-(3-carboxy-propoxy)-5-ethyl-phenanzinium, NA BM31—1144 (N,N-bis-(hydroxyethyl)-3-methoxynitrosoaniline hydrochloride, NA BM31—1008 (N,N-bis-hydroxyethyl-4-nitrosoaniline) and N—N-4-dimethyl-nitrosoaniline.
(§2) As used herein in the context of the relative or quantitative activity, the dehydrogenase activity is specifically defined to be the mole amount of the substrate (fructosyl amino acid) oxidized per unit time measured by the amount of electrons transferred to the mediator at 25° C. in 10 mM PPB (pH 7.0), 0.6 mM DCIP, and 6 mM methoxy PMS (mPMS).
Escherichia coli BL21 (DE3) cells harboring expression vectors of N1-1 FAOD (SEQ ID NO: 2) mutants were grown in 150 ml of LB medium containing 50 μg/ml kanamycin at 37° C. […] The formation of quinoneimine dye was measured spectrophotometrically at 546 nm. […]

[2] = target: fructosyl amino acid oxidase from Phaeosphaeria nodorum (PnFPOX, SEQ ID NO: 1) variant N56A (Parastagonospora nodorum, UniProt Q0UIL6, N56A); experiment: Dehydrogenase activity kinetics (mPMS/DCIP), PnFPOX N56A mutant; format: biochemical; conditions: purified enzyme, 25° C., pH 7.0
Excerpt: as §1, §2
Escherichia coli BL21 (DE3) cells harboring expression vectors of N1-1 FAOD (SEQ ID NO: 2) mutants were grown in 150 ml of LB medium containing 50 μg/ml kanamycin at 37° C. After reaching an A660 value of 0.6, 0.3 mM IPTG was added and incubated at 25° C. for an additional 5 hours. The cells were collected by centrifugation and washed twice with 0.85% NaCl.aq. Then, the cells were resuspended in 10 mM Potassium Phosphate Buffer (PPB) pH 7.0 and lysed by ultrasonic homogenizer. The lysate was centrifuged at 10,000×g, 4° C. for 10 min, and the supernatant was centrifuged at 50,000 rpm, 4° C. for 60 min, then the supernatant was dialyzed against 10 mM PPB (pH 7.0). The oxidase activity was assayed at 25° C. in 10 mM PPB, pH 7.0, 1.5 mM TODB, 2 U/ml horseradish peroxidase (POD), and 1.5 mM 4-aminoantipyrine (4AA) in the presence of substrates (0.2, 0.5, 0.75, 1, 2, 5 mM f-^αVal […]). The formation of quinoneimine dye was measured spectrophotometrically at 546 nm. The dehydrogenase activity was assayed at 25° C. in 10 mM PPB (pH 7.0), 0.6 mM DCIP, and 6 mM methoxy PMS (mPMS) in the presence of substrates (0.2, 0.5, 1, 2, 5 mM f-^αVal or 5 mM f-^αVal-His).
Mutations were introduced using site-directed mutagenesis as in Example 1, and BL21 (DE3) cells were transformed with an expression vector containing wild-type or mutant PnFPOX (SEQ ID NO: 1). The cultured cells were resuspended in 10 mM PPB, pH 7.0, and lysed by sonication. The lysate was centrifuged at 10,000 g at 4° C. for 20 min, and the supernatant was centrifuged at 50,000 rpm at 4° C. for 60 min. The oxidase and dehydrogenase activities were measured as in Example 1. […]

Chain of fructosyl amino acid oxidase from Phaeosphaeria nodorum (PnFPOX, SEQ ID NO: 1) variant N56A (Q0UIL6 whole entry N56A): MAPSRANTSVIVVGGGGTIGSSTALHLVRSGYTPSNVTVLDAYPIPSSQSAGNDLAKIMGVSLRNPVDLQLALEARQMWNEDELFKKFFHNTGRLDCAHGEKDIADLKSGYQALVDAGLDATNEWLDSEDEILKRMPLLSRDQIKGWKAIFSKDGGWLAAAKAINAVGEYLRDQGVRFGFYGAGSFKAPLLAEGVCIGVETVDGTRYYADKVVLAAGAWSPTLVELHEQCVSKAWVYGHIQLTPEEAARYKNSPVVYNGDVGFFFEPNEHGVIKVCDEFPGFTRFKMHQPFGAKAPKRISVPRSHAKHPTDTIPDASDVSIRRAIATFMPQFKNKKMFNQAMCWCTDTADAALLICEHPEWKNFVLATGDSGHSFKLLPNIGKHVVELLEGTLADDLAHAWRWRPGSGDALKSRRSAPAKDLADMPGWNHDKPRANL

CC(C)[C@H](NCC1(O)OC[C@@H](O)[C@@H](O)[C@@H]1O)C(=O)O (stereo partly drawn) [f-αVal, fructosyl valine]
B/A (Vmax dehydrogenase/Vmax oxidase) ([1]; crude preparation): 7.5 | B/A (Vmax dehydrogenase/Vmax oxidase) ([1]; purified enzyme): 4.3 | Vmax [2]: 95.1 U/mg
